The values that follow come from patent US9115143B2, “Substituted indole derivatives as gamma secretase modulators” (Janssen Pharmaceuticals, Inc., priority 2011, dated 2015).

Broadly, the IC50 is the concentration at which inhibition is half-maximal. Low readings indicate greater potency in that assay, high ones weaker potency in that assay. By melting point is commonly meant the temperature of the solid-liquid transition.

The subject of series [1] is Aβtotal. The series can be described thus: Screening for γ-secretase-modulating activity: Aβtotal in supernatant of SKNBE2 cells carrying hAPP 695 wild type (Alphalisa). In kind it is cell-based, human. Particulars: overnight incubation, Alphalisa on supernatant. In outline:
(§1)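 Secreted Aβ42 (C-terminal/N-terminal antibody pair) and Aβtotal (N-terminal/mid-region pair) were quantified by AlphaLISA after overnight compound exposure of wild-type hAPP 695 SKNBE2 cells at 37 °C. Values expressed relative to compound-free maximum, with IC50 from nonlinear 4-parameter regression.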

The test system of series [2] is Aβ42. Description: Screening for γ-secretase-modulating activity: Aβ42 in supernatant of SKNBE2 cells carrying hAPP 695 wild type (Alphalisa). Format: cell-based, human. As to conditions: overnight incubation, Alphalisa on supernatant. The gist of the method:
as §1
Background: In Alpha technology, singlet oxygen from a donor bead excites a nearby acceptor bead.

Setting [3] is: Homo sapiens, SKNBE2, SKNBE2 human neuroblastoma cells carrying hAPP 695 wild type.
[4] abbreviates: SKNBE2 human neuroblastoma cells carrying hAPP 695 wild type.

The molecule `Cc1cn(-c2ccc3[nH]c(-c4nc5n(n4)CCOC5c4ccc(F)cc4C(C)C)cc3c2)cn1` (stereo not drawn) [Compound 100, 8-[4-fluoro-2-(1-methylethyl)phenyl]-5,6-dihydro-2-[5-(4-methyl-1H-imidazol-1-yl)-1H-indol-2-yl]-8H-[1,2,4]triazolo[5,1-c][1,4]oxazine] displayed a melting point of 297.5 °C. The molecule also registered an IC50 in series [1] (setting [3]) of more than 10000 nM. Moreover, half-maximal inhibition in series [2] (setting [3]) (IC50) was put at 48 nM.

As for `Cc1cc(-c2ccc3[nH]c(-c4cn5c(n4)C(c4ccc(F)cc4C)OCC5)cc3c2)ccn1` (stereo not drawn) [Compound 103, 8-(4-fluoro-2-methylphenyl)-5,6-dihydro-2-[5-(2-methyl-4-pyridinyl)-1H-indol-2-yl]-8H-imidazo[2,1-c][1,4]oxazine], the melting point came out at 191.8 °C. This molecule also registered an IC50 in series [1] (setting [3]) of more than 10000 nM. Besides, it took 26 nM to reach half-maximal inhibition in series [2] (setting [3]) (IC50).

As to `CCc1cc(F)ccc1C1OCCn2nc(-c3cc4cc(-n5cnc(C)c5)ccc4[nH]3)nc21` (stereo not drawn) [Compound 105, 8-(2-ethyl-4-fluorophenyl)-5,6-dihydro-2-[5-(4-methyl-1H-imidazol-1-yl)-1H-indol-2-yl]-8H-[1,2,4]triazolo[5,1-c][1,4]oxazine], the melting point is 285.7 °C. The molecule further displayed a 50% inhibitory concentration (IC50) in series [1] (setting [3]) of more than 10000 nM. Also, in series [2] (setting [3]), 34 nM corresponded to half-maximal inhibition (IC50).

As to `Cc1cc(F)ccc1C1OCCn2nc(-c3cc4nc(-c5cnn(C)c5)ccc4[nH]3)nc21` (stereo not drawn) [Compound 106, 8-(4-fluoro-2-methylphenyl)-5,6-dihydro-2-[5-(1-methyl-1H-pyrazol-4-yl)-1H-pyrrolo[3,2-b]pyridin-2-yl]-8H-[1,2,4]triazolo[5,1-c][1,4]oxazine], the melting point stood at 263.8 °C. The IC50 in series [1] (setting [3]) was more than 10000 nM. This molecule also gave an IC50 in series [2] (setting [3]) of 447 nM.

Molecule `COc1c(C#N)ccc2[nH]c(-c3nc4n(n3)CCOC4c3ccc(F)cc3C)cc12` (stereo not drawn) [Compound 115, 2-[8-(4-fluoro-2-methylphenyl)-5,6-dihydro-8H-[1,2,4]triazolo[5,1-c][1,4]oxazin-2-yl]-4-methoxy-1H-indole-5-carbonitrile] displayed a melting point of 257.4 °C. Besides, in series [1] (setting [4]), the IC50 was more than 10000 nM. In series [2] (setting [4]), this molecule displayed an IC50 of 1480 nM.

Turning to `Cc1cn(-c2ccc3[nH]c(-c4nc5n(n4)CCOC5c4cc(F)c(F)c(C)c4C)cc3c2)cn1` (stereo not drawn) [Compound 116, 8-(4,5-difluoro-2,3-dimethylphenyl)-5,6-dihydro-2-[5-(4-methyl-1H-imidazol-1-yl)-1H-indol-2-yl]-8H-[1,2,4]triazolo[5,1-c][1,4]oxazine], the melting point was 285.1 °C. Besides, the IC50 in series [1] (setting [3]) was more than 10000 nM. This molecule showed an IC50 in series [2] (setting [3]) of 33 nM.

The molecule `COc1c(C#N)ccc2[nH]c(-c3nc4n(n3)CCOC4c3ccccc3Cl)cc12` (stereo not drawn) [Compound 137, 2-[8-(2-chlorophenyl)-5,6-dihydro-8H-[1,2,4]triazolo[5,1-c][1,4]oxazin-2-yl]-4-methoxy-1H-indole-5-carbonitrile] showed a melting point of 197.5 °C. Further, in series [1] (setting [4]), the IC50 was more than 10000 nM. It took 49 nM to reach half-maximal inhibition in series [2] (setting [4]) (IC50).

Turning to `COc1c(C#N)ccc2[nH]c(-c3cn4c(n3)C(c3c(C)cccc3F)OCC4)cc12` (stereo not drawn) [Compound 139, 2-[8-(2-fluoro-6-methylphenyl)-5,6-dihydro-8H-imidazo[2,1-c][1,4]oxazin-2-yl]-4-methoxy-1H-indole-5-carbonitrile], the melting point is 296.2 °C. For the same molecule, the IC50 in series [1] (setting [4]) is more than 10000 nM. This molecule also showed an IC50 in series [2] (setting [4]) of 1620 nM.

Regarding `COc1c(C#N)ccc2[nH]c(-c3nc4n(n3)CCOC4c3c(C)cccc3F)cc12` (stereo not drawn) [Compound 141, 2-[8-(2-fluoro-6-methylphenyl)-5,6-dihydro-8H-[1,2,4]triazolo[5,1-c][1,4]oxazin-2-yl]-4-methoxy-1H-indole-5-carbonitrile], the melting point was 244.4 °C. Besides, the IC50 in series [1] (setting [4]) was more than 10000 nM. The same molecule gave an IC50 in series [2] (setting [4]) of 28 nM.

Molecule `COc1c(C#N)ccc2[nH]c(-c3nc4n(n3)CCOC4c3c(C)cccc3F)cc12` (stereo not drawn) [Compound 142, 2-[8-(2-fluoro-6-methylphenyl)-5,6-dihydro-8H-[1,2,4]triazolo[5,1-c][1,4]oxazin-2-yl]-4-methoxy-1H-indole-5-carbonitrile] yielded a melting point of 244.8 °C. Also, in series [1] (setting [4]), the IC50 was more than 10000 nM. Further, the IC50 in series [2] (setting [4]) was 2820 nM.

In turn, `COc1c(C#N)ccc2[nH]c(-c3nc4n(n3)CCOC4c3cccc(F)c3C)cc12` (stereo not drawn) [Compound 150, 2-[8-(3-fluoro-2-methylphenyl)-5,6-dihydro-8H-[1,2,4]triazolo[5,1-c][1,4]oxazin-2-yl]-4-methoxy-1H-indole-5-carbonitrile] returned a melting point of 238.2 °C. This molecule had an IC50 in series [1] (setting [4]) of more than 10000 nM. In series [2] (setting [4]), this molecule gave an IC50 of 2190 nM.

Take `COc1c(C#N)ccc2[nH]c(-c3nc4n(n3)CCOC4c3ccc(F)c(Cl)c3)cc12` (stereo not drawn) [Compound 156, 2-[8-(3-chloro-4-fluorophenyl)-5,6-dihydro-8H-[1,2,4]triazolo[5,1-c][1,4]oxazin-2-yl]-4-methoxy-1H-indole-5-carbonitrile]: the melting point stood at 267.3 °C. The same molecule displayed an IC50 in series [1] (setting [4]) of more than 10000 nM. The IC50 in series [2] (setting [4]) came out at 85 nM.

In turn, `COc1c(C#N)ccc2[nH]c(-c3nc4n(n3)CCOC4c3ccc(F)c(Cl)c3)cc12` (stereo not drawn) [Compound 157, 2-[8-(3-chloro-4-fluorophenyl)-5,6-dihydro-8H-[1,2,4]triazolo[5,1-c][1,4]oxazin-2-yl]-4-methoxy-1H-indole-5-carbonitrile] came in with a melting point of 265.5 °C. The molecule also showed an IC50 in series [1] (setting [4]) of more than 10000 nM. In series [2] (setting [4]), half-maximal inhibition (IC50) required 7590 nM.

Consider `COc1c(C#N)ccc2[nH]c(-c3cn4c(n3)C(c3cc(F)ccc3C)OCC4)cc12` (stereo not drawn) [Compound 159, 2-[8-(5-fluoro-2-methylphenyl)-5,6-dihydro-8H-imidazo[2,1-c][1,4]oxazin-2-yl]-4-methoxy-1H-indole-5-carbonitrile], for which the melting point amounted to 277.1 °C. The same molecule showed an IC50 in series [1] (setting [4]) of more than 10000 nM. Also, half-maximal inhibition in series [2] (setting [4]) (IC50) was put at 676 nM.

`COc1c(C#N)ccc2[nH]c(-c3cn4c(n3)C(c3ccccc3C3CC3)OCC4)cc12` (stereo not drawn) [Compound 169, 2-[8-(2-cyclopropylphenyl)-5,6-dihydro-8H-imidazo[2,1-c][1,4]oxazin-2-yl]-4-methoxy-1H-indole-5-carbonitrile]: the melting point is 270.8 °C. The molecule also displayed an IC50 in series [1] (setting [4]) of more than 10000 nM. The same molecule had an IC50 in series [2] (setting [4]) of 759 nM.

Turning to `COc1c(C#N)ccc2[nH]c(-c3cn4c(n3)C(c3ccccc3C3CC3)OCC4)cc12` (stereo not drawn) [Compound 170, 2-[8-(2-cyclopropylphenyl)-5,6-dihydro-8H-imidazo[2,1-c][1,4]oxazin-2-yl]-4-methoxy-1H-indole-5-carbonitrile], the melting point stood at 269.8 °C. This molecule also displayed an IC50 in series [1] (setting [3]) of more than 10000 nM. This molecule came in with an IC50 in series [2] (setting [4]) of 11 nM.
